In US20190233884A1 (University of Southern California, priority 2016, published 2019):
“Also recorded” adds a separate entry of the source.

System: patients with refractory metastatic colorectal cancer (mCRC)
Experiment: PFS, OS and disease control in the control cohort of refractory mCRC patients receiving regorafenib (n=52, Italy), by baseline characteristics and SNP genotype
Type: in vivo, human
Details: for Median OS (months) / Median PFS (months): ITA REGORA cohort; for Disease Control CR/PR/SD, patients n (%) / Median OS (95% CI) / Median PFS (95% CI) / PD, patients n (%) / HR OS (95% CI) / HR PFS (95% CI) / Median OS / Median PFS / HR OS / HR PFS: control cohort
Description: All patients underwent the treatment in salvage-line setting.
(§1) Patients in the control group received 160 mg regorafenib (Bayer, Leverkusen, Germany) once daily from day 1 to 21 every 4 weeks. Doses were adjusted based on haematological and non-haematological adverse events at the treating physician's discretion in accordance with the manufacturer's recommendations. The analyses were approved by the University of Southern California (USC) Institutional Review Board of Medical Sciences and conducted at the USC/Norris Comprehensive Cancer Center in accordance with the Declaration of Helsinki and Good Clinical Practice Guidelines.
(§2) Genomic DNA was extracted from peripheral whole blood in patients of all cohorts using the QIAmp Kit (Qiagen, Valencia, Calif., USA) according to the manufacturer's protocol (www.qiagen.com). The candidate SNPs were genotyped using PCR-based direct DNA sequence analysis by ABI 3100A Capillary Genetic Analyzer and Sequencing Scanner v1.0 (Applied Biosystems). Amplification of extracted DNA was carried out using both forward and reverse primers for each gene polymorphism as shown in Table 1. […] The investigators analyzing SNPs were blinded to the clinical data of the study patients.
The primary endpoint in this study was progression-free survival (PFS), and the secondary endpoints were overall survival (OS) and disease control rate (DCR). PFS was calculated from the date of starting treatment to the first observation of disease progression or death from any cause. If a patient had no disease progression or death, PFS was censored at the date of last follow up. OS was calculated from the date of starting treatment until the date of death from any cause or the date of the last follow-up, at which point OS was censored. The disease control rate (DCR) was defined as the proportion of patients who achieved a stable disease (SD) or […] according to RECISTv1.1. Chi-square test was used to examine the difference in baseline patient characteristics among the three cohorts. Allelic distribution of all SNPs by ethnicity for deviation from Hardy-Weinberg equilibrium and the allelic frequencies of SNPs were tested using the Chi-square tests with one degree of freedom. The associations between candidate SNPs and disease control, and toxicities were examined using contingency tables and Fisher's exact test. The associations of SNPs with PFS and OS were analysed using Kaplan-Meier curves and the log-rank test. Because the true mode of inheritance of candidate SNPs was not established yet, a codominant or dominant genetic model if appropriate was considered.
All patients underwent the treatment in salvage-line setting. […] In all patients, adverse events were graded according to the Common Terminology Criteria for Adverse Events, version 4.0.
as §1, with “events at treating physician's” for “events at the treating physician's”
as §2, with “tested” for “genotyped”, “Biosystems).” for “Biosystems). Amplification of extracted DNA was carried out using both forward and reverse primers for each gene polymorphism as shown in Table 1.”, “data.” for “data of the study patients.”
The primary endpoint in this study was progression-free survival (PFS), and the secondary endpoints were overall survival (OS) and disease control rate (DCR). […]

[1] = ATM rs609429 Any G vs C/C (Ref.), multivariable
[2] = ATM rs609429 Any G vs C/C (Ref.), univariate
[3] = Adjuvant history No vs Yes (Ref.), univariate
[4] = Age ≥61 vs <61 (Ref.), univariate
[5] = CHEK2 rs2267130 Any C vs T/T (Ref.), multivariable
[6] = CHEK2 rs2267130 Any C vs T/T (Ref.), univariate
[7] = CHEK2 rs2267130 C/C vs T/T (Ref.), multivariable
[8] = CHEK2 rs2267130 C/C vs T/T (Ref.), univariate
[9] = CHEK2 rs2267130 T/C vs T/T (Ref.), multivariable
[10] = CHEK2 rs2267130 T/C vs T/T (Ref.), univariate
[11] = KRAS Mutant vs Wild type (Ref.), univariate
[12] = LN metastasis No vs Yes (Ref.), univariate
[13] = Liver metastasis No vs Yes (Ref.), univariate
[14] = Lung metastasis No vs Yes (Ref.), univariate
[15] = Number of metastases >2 vs ≤2 (Ref.), univariate
[16] = Performance status ECOG 1 vs ECOG 0 (Ref.), univariate
[17] = Peritoneal No vs Yes (Ref.), univariate
[18] = Pre-chemo numbers ≥4 vs <4 (Ref.), univariate
[19] = Primary tumor resection No vs Yes (Ref.), univariate

Compound: CNC(=O)c1cc(Oc2ccc(NC(=O)Nc3ccc(Cl)c(C(F)(F)F)c3)c(F)c2)ccn1 [regorafenib]
- Median OS (months) (ATM rs609429 C/C (n=28)): 4.5 months
- Median OS (months) (ATM rs609429 G/C or G/G (n=24)): 5.9 months
- Median OS (months) (XRCC3 rs861539 G/A (n=37)): 5.9 months
- Median PFS (months) (XRCC3 rs861539 G/A (n=37)): 1.9 months
- Median OS (months) (XRCC3 rs861539 G/G (n=15)): 4.1 months
- Median PFS (months) (XRCC3 rs861539 G/G (n=15)): 1.7 months
- association of candidate SNPs with PFS or OS (control cohort receiving regorafenib without previous TAS-102, uni- and multivariate analyses): no significant differences; also recorded: no significant association
- Disease Control CR/PR/SD, patients n (%) (ATM rs609429 Any G): 9 (38%)
- Median OS (95% CI) (ATM rs609429 Any G): 5.9 (3.5, 10.2) months
- Median PFS (95% CI) (ATM rs609429 Any G): 2.0 (1.7, 3.1) months
- PD, patients n (%) (ATM rs609429 Any G): 15 (63%)
- HR OS (95% CI) [1]: 0.84 (0.47, 1.48)
- HR PFS (95% CI) [1]: 1.06 (0.60, 1.87)
- HR OS (95% CI) [2]: 1.91 (0.44, 8.31)
- HR PFS (95% CI) [2]: 0.95 (0.55, 1.66)
- Disease Control CR/PR/SD, patients n (%) (ATM rs609429 C/C): 8 (32%)
- Median OS (95% CI) (ATM rs609429 C/C): 4.6 (2.6, 7.6) months
- Median PFS (95% CI) (ATM rs609429 C/C): 1.9 (1.6, 2.8) months
- PD, patients n (%) (ATM rs609429 C/C): 17 (68%)
- Disease Control CR/PR/SD, patients n (%) (ATM rs609429 C/G): 8 (38%)
- PD, patients n (%) (ATM rs609429 C/G): 13 (62%)
- Disease Control CR/PR/SD, patients n (%) (ATM rs609429 G/G): 1 (33%)
- PD, patients n (%) (ATM rs609429 G/G): 2 (67%)
- Median OS (Adjuvant history No): 5.9 months
- Median PFS (Adjuvant history No): 2.0 months
- HR OS [3]: 0.59
- HR PFS [3]: 0.71
- Median OS (Adjuvant history Yes): 3.9 months
- Median PFS (Adjuvant history Yes): 1.8 months
- Median OS (Age <61): 5.1 months
- Median PFS (Age <61): 1.8 months
- Median OS (Age ≥61): 5.8 months
- Median PFS (Age ≥61): 2.1 months
- HR OS [4]: 0.74
- HR PFS [4]: 0.58
- Disease Control CR/PR/SD, patients n (%) (CHEK2 rs2267130 Any C): 13 (36%)
- Median OS (95% CI) (CHEK2 rs2267130 Any C): 5.9 (4.4, 7.9) months
- Median PFS (95% CI) (CHEK2 rs2267130 Any C): 1.8 (1.7, 2.8) months
- PD, patients n (%) (CHEK2 rs2267130 Any C): 23 (64%)
- HR OS (95% CI) [5]: 0.81 (0.42, 1.54)
- HR PFS (95% CI) [5]: 1.22 (0.65, 2.28)
- HR OS (95% CI) [6]: 0.80 (0.44, 1.48)
- HR PFS (95% CI) [6]: 1.07 (0.58, 1.95)
- Disease Control CR/PR/SD, patients n (%) (CHEK2 rs2267130 C/C): 3 (27%)
- Median OS (95% CI) (CHEK2 rs2267130 C/C): 5.7 (2.0, 7.8) months
- Median PFS (95% CI) (CHEK2 rs2267130 C/C): 2.0 (1.5, 2.7) months
- PD, patients n (%) (CHEK2 rs2267130 C/C): 8 (73%)
- HR OS (95% CI) [7]: 0.90 (0.41, 2.00)
- HR PFS (95% CI) [7]: 1.35 (0.61, 2.99)
- HR OS (95% CI) [8]: 0.89 (0.41, 1.97)
- HR PFS (95% CI) [8]: 1.18 (0.54, 2.59)
- Disease Control CR/PR/SD, patients n (%) (CHEK2 rs2267130 T/C): 10 (40%)
- Median OS (95% CI) (CHEK2 rs2267130 T/C): 6.2 (2.4, 8.9) months
- Median PFS (95% CI) (CHEK2 rs2267130 T/C): 1.8 (1.6, 3.1) months
- PD, patients n (%) (CHEK2 rs2267130 T/C): 15 (60%)
- HR OS (95% CI) [9]: 0.76 (0.38, 1.53)
- HR PFS (95% CI) [9]: 1.15 (0.58, 2.27)
- HR OS (95% CI) [10]: 0.77 (0.40, 1.48)
- HR PFS (95% CI) [10]: 1.02 (0.54, 1.95)
- Disease Control CR/PR/SD, patients n (%) (CHEK2 rs2267130 T/T): 4 (31%)
- Median OS (95% CI) (CHEK2 rs2267130 T/T): 3.8 (2.2, 8.0) months
- Median PFS (95% CI) (CHEK2 rs2267130 T/T): 1.9 (1.4, 3.4) months
- PD, patients n (%) (CHEK2 rs2267130 T/T): 9 (69%)
- Median OS (KRAS Mutant): 4.8 months
- Median PFS (KRAS Mutant): 2.0 months
- HR OS [11]: 0.93
- HR PFS [11]: 1.05
- Median OS (KRAS Wild type): 6.3 months
- Median PFS (KRAS Wild type): 1.9 months
- Median OS (LN metastasis No): 7.7 months
- Median PFS (LN metastasis No): 2.8 months
- HR OS [12]: 0.62
- HR PFS [12]: 0.52
- Median OS (LN metastasis Yes): 3.8 months
- Median PFS (LN metastasis Yes): 1.8 months
- Median OS (Liver metastasis No): 6.6 months
- Median PFS (Liver metastasis No): 4.8 months
- HR OS [13]: 0.61
- HR PFS [13]: 0.46
- Median OS (Liver metastasis Yes): 4.7 months
- Median PFS (Liver metastasis Yes): 1.9 months
- Median OS (Lung metastasis No): 3.7 months
- Median PFS (Lung metastasis No): 2.0 months
- HR OS [14]: 1.24
- HR PFS [14]: 1.17
- Median OS (Lung metastasis Yes): 5.9 months
- Median PFS (Lung metastasis Yes): 1.9 months
- Median OS (Number of metastases >2): 4.0 months
- Median PFS (Number of metastases >2): 1.9 months
- HR OS [15]: 1.59
- HR PFS [15]: 1.86
- Median OS (Number of metastases ≤2): 6.3 months
- Median PFS (Number of metastases ≤2): 2.8 months
- Median OS (Performance status ECOG 0): 5.9 months
- Median PFS (Performance status ECOG 0): 2.1 months
- Median OS (Performance status ECOG 1): 2.4 months
- Median PFS (Performance status ECOG 1): 1.2 months
- HR OS [16]: 2.09
- HR PFS [16]: 2.27
- Median OS (Peritoneal No): 5.5 months
- Median PFS (Peritoneal No): 2.0 months
- HR OS [17]: 0.82
- HR PFS [17]: 0.87
- Median OS (Peritoneal Yes): 5.1 months
- Median PFS (Peritoneal Yes): 1.9 months
- Median OS (Pre-chemo numbers <4): 6.0 months
- Median PFS (Pre-chemo numbers <4): 2.0 months
- Median OS (Pre-chemo numbers ≥4): 4.7 months
- Median PFS (Pre-chemo numbers ≥4): 1.8 months
- HR OS [18]: 1.16
- HR PFS [18]: 0.95
- Median OS (Primary tumor resection No): 4.2 months
- Median PFS (Primary tumor resection No): 2.0 months
- HR OS [19]: 1.04
- HR PFS [19]: 0.79
- Median OS (Primary tumor resection Yes): 5.6 months
- Median PFS (Primary tumor resection Yes): 1.9 months
